# According to US12077503B2, “Substituted cyclic amides and their use as herbicides” (FMC CORPORATION, priority 2015, dated 2024):
# Experiments:
# Format in all cases: in vivo
# Kochia (Kochia scoparia) [1] = assay: Test A preemergence
# How it was run: (§1)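 Each rating is a visual injury score from 0 to 100 given about 10 d after treatment, judged against untreated controls kept alongside in the greenhouse. In loam soil–sand blend, seeds got a preemergence directed soil spray, while postemergence plants were 2 to 10 cm tall at spraying.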
# [2] = system: barnyardgrass (Echinochloa crus-galli); assay: Test A preemergence
# How it was run: as §1
# [3] = system: giant foxtail (Setaria faberii); assay: Test A preemergence
# How it was run: as §1
# [4] = system: pigweed (Amaranthus retroflexus); assay: Test A preemergence; conditions: for Plant response rating, Pigweed: preemergence
# [5] = system: ragweed (common ragweed, Ambrosia elatior); assay: Test A preemergence; conditions: for Plant response rating, Ragweed: preemergence
# How it was run: as §1
# [6] = system: ryegrass, Italian (Italian ryegrass, Lolium multiflorum); assay: Test A preemergence; conditions: for Plant response rating, Ryegrass, Italian: preemergence
# How it was run: as §1
# [7] = system: Galium (catchweed bedstraw, Galium aparine); assay: Test A postemergence; conditions: postemergence
# How it was run: as §1
# Kochia (Kochia scoparia) [8] = assay: Test A postemergence; conditions: postemergence
# How it was run: as §1
# [9] = system: barnyardgrass (Echinochloa crus-galli); assay: Test A postemergence; conditions: postemergence
# How it was run: as §1
# [10] = system: blackgrass (Alopecurus myosuroides); assay: Test A postemergence; conditions: postemergence
# How it was run: as §1
# corn (Zea mays) = assay: Test A postemergence; conditions: postemergence
# How it was run: as §1
# [11] = system: giant foxtail (Setaria faberii); assay: Test A postemergence; conditions: postemergence
# How it was run: as §1
# [12] = system: pigweed (Amaranthus retroflexus); assay: Test A postemergence; conditions: postemergence
# How it was run: as §1
# [13] = system: ragweed (common ragweed, Ambrosia elatior); assay: Test A postemergence; conditions: postemergence
# How it was run: as §1
# [14] = system: ryegrass, Italian (Italian ryegrass, Lolium multiflorum); assay: Test A postemergence; conditions: postemergence
# How it was run: as §1
# [15] = system: wheat (Triticum aestivum); assay: Test A postemergence; conditions: postemergence
# How it was run: as §1
# [16] = system: barnyardgrass (Echinochloa crus-galli); assay: Test B flooded paddy test; conditions: Flood, 0 to 100 scale where 0 is no effect and 100 is complete control, 13 to 15 d
# How it was run: (§2)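 Compound goes directly into floodwater once pots are flooded 3 cm above soil, targeting plants at two leaves; the water depth is then held for the test duration. Plants sit 13–15 d in a greenhouse and are rated visually, 100 denoting complete control.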
# [17] = system: ducksalad (Heteranthera limosa); assay: Test B flooded paddy test; conditions: Flood, 0 to 100 scale where 0 is no effect and 100 is complete control, 13 to 15 d
# How it was run: as §2
# rice (Oryra sativa) = assay: Test B flooded paddy test; conditions: Flood, 0 to 100 scale where 0 is no effect and 100 is complete control, 13 to 15 d
# How it was run: as §2
# [18] = system: sedge, umbrella (small-flower umbrella sedge, Cyperus difformis); assay: Test B flooded paddy test; conditions: Flood
# How it was run: as §2
# [19] = 125 g ai/ha, preemergence, 0 to 100 scale (0 no effect, 100 complete control)
# [20] = Preemergence, 500 g ai/ha, visual injury approx. 10 d
# [21] = 125 g ai/ha, 0 to 100 scale (0 no effect, 100 complete control)
# [22] = 125 g ai/ha, visual injury rating on 0 to 100 scale (0 no effect, 100 complete control), approx. 10 d
# [23] = 500 g ai/ha, 0 to 100 scale, 0 no effect, 100 complete control
# [24] = 125 g ai/ha, Preemergence, visual injury after approximately 10 d, 0 to 100 scale where 0 is no effect and 100 is complete control
# [25] = 500 g ai/ha, preemergence, 0 to 100 scale, 0 = no effect, 100 = complete control
# [26] = 125 g ai/ha, visual rating after approx. 10 d, 0 to 100 scale where 0 is no effect and 100 is complete control
# [27] = 500 g ai/ha, 0 to 100 scale, 0 = no effect, 100 = complete control
# [28] = 125 g ai/ha, visual injury after approximately 10 d, 0 to 100 scale (0 no effect, 100 complete control)
# [29] = 500 g ai/ha, visual injury, 0 to 100 scale (0 no effect, 100 complete control), approx. 10 d
# [30] = 125 g ai/ha, visual rating after approx. 10 d, 0 to 100 scale (0 no effect, 100 complete control)
structure (smiles),measurement,setting,value
COc1ccc(NC(=O)C2C(=O)NCC2c2ccc(F)c(F)c2)c(F)c1 (stereo not drawn) [Compound 413],"Plant response rating, Kochia",Kochia (Kochia scoparia) [1]; [19],0
same,"Kochia plant response rating (0 to 100 scale, 0 is no effect, 100 is complete control)",Kochia (Kochia scoparia) [1]; [20],0
same,"Plant response rating, Barnyardgrass",[2]; [19],0
same,"Barnyardgrass plant response rating (0 to 100 scale, 0 is no effect, 100 is complete control)",[2]; [20],0
same,"Plant response rating, Foxtail, Giant",[3]; [19],0
same,"Foxtail, Giant plant response rating (0 to 100 scale, 0 is no effect, 100 is complete control)",[3]; [20],0
same,"Plant response rating, Pigweed",[4]; [21],0
same,"Pigweed plant response rating (0 to 100 scale, 0 is no effect, 100 is complete control)",[4]; [20],0
same,"Plant response rating, Ragweed",[5]; [21],0
same,"Ragweed plant response rating (0 to 100 scale, 0 is no effect, 100 is complete control)",[5]; [20],0
same,"Plant response rating, Ryegrass, Italian",[6]; [21],0
same,"Ryegrass, Italian plant response rating (0 to 100 scale, 0 is no effect, 100 is complete control)",[6]; [20],0
same,Galium plant response rating,[7]; [22],0
same,"Plant response rating, Galium",[7]; [23],0
same,Kochia plant response rating,Kochia (Kochia scoparia) [8]; [22],0
same,"Plant response rating, Kochia",Kochia (Kochia scoparia) [8]; [23],0
same,Barnyardgrass plant response rating,[9]; [22],0
same,"Plant response rating, Barnyardgrass",[9]; [23],0
same,Blackgrass plant response rating,[10]; [22],0
same,"Plant response rating, Blackgrass",[10]; [23],0
same,Corn plant response rating,corn (Zea mays); [22],0
same,"Plant response rating, Corn",corn (Zea mays); [23],0
same,"Foxtail, Giant plant response rating",[11]; [22],0
same,"Plant response rating, Foxtail, Giant",[11]; [23],0
same,Pigweed plant response rating,[12]; [22],0
same,"Plant response rating, Pigweed",[12]; [23],0
same,Ragweed plant response rating,[13]; [22],0
same,"Plant response rating, Ragweed",[13]; [23],0
same,"Ryegrass, Italian plant response rating",[14]; [22],0
same,"Plant response rating, Ryegrass, Italian",[14]; [23],0
same,Wheat plant response rating,[15]; [22],0
same,"Plant response rating, Wheat",[15]; [23],0
same,"Plant response rating, Barnyardgrass",[16]; 500 g ai/ha,0
same,"Plant response rating, Ducksalad",[17]; 500 g ai/ha,0
same,"Plant response rating, Rice",rice (Oryra sativa); 500 g ai/ha,0
same,"Plant response rating, Sedge, Umbrella","[18]; 500 g ai/ha, 0 to 100 scale where 0 is no effect and 100 is complete control, 13 to 15 d",0
O=C1NCC(c2cccc(Br)c2)C1C(=O)Nc1ccc(F)c(F)c1F (racemic) [Compound 689],"Plant response rating, Kochia",Kochia (Kochia scoparia) [1]; [24],20
same,"Plant response rating, Kochia",Kochia (Kochia scoparia) [1]; [25],60
same,"Plant response rating, Barnyardgrass",[2]; [24],90
same,"Plant response rating, Barnyardgrass",[2]; [25],90
same,"Plant response rating, Foxtail, Giant",[3]; [24],90
same,"Plant response rating, Foxtail, Giant",[3]; [25],90
same,"Plant response rating, Pigweed",[4]; [26],20
same,"Plant response rating, Pigweed",[4]; [27],40
same,"Plant response rating, Ragweed",[5]; [26],0
same,"Plant response rating, Ragweed",[5]; [27],30
same,"Plant response rating, Ryegrass, Italian",[6]; [26],0
same,"Plant response rating, Ryegrass, Italian",[6]; [27],20
same,"Plant response rating, Galium",[7]; [28],50
same,"Plant response rating, Galium",[7]; [29],50
same,"Plant response rating, Kochia",Kochia (Kochia scoparia) [8]; [28],30
same,"Plant response rating, Kochia",Kochia (Kochia scoparia) [8]; [29],60
same,"Plant response rating, Barnyardgrass",[9]; [30],90
same,"Plant response rating, Barnyardgrass",[9]; [29],90
same,"Plant response rating, Blackgrass",[10]; [30],50
same,"Plant response rating, Blackgrass",[10]; [29],60
same,"Plant response rating, Corn",corn (Zea mays); [28],60
same,"Plant response rating, Corn",corn (Zea mays); [29],80
same,"Plant response rating, Foxtail, Giant",[11]; [28],80
same,"Plant response rating, Foxtail, Giant",[11]; [29],90
same,"Plant response rating, Pigweed",[12]; [28],30
same,"Plant response rating, Pigweed",[12]; [29],60
same,"Plant response rating, Ragweed",[13]; [28],0
same,"Plant response rating, Ragweed",[13]; [29],50
same,"Plant response rating, Ryegrass, Italian",[14]; [28],30
same,"Plant response rating, Ryegrass, Italian",[14]; [29],60
same,"Plant response rating, Wheat",[15]; [28],20
same,"Plant response rating, Wheat",[15]; [29],60
same,"Plant response rating, Barnyardgrass",[16]; 250 g ai/ha,40
same,"Plant response rating, Ducksalad",[17]; 250 g ai/ha,98
same,"Plant response rating, Rice",rice (Oryra sativa); 250 g ai/ha,0
same,"Sedge, Umbrella plant response rating","[18]; 250 g ai/ha, scale of 0 to 100 where 0 is no effect and 100 is complete control",0
